# In the NIST ThermoML archive (doi:10.1021/je034203p):
# ± gives the expanded uncertainty stated by the source.
# Assay: xn = mol fraction of the nth substance listed
# Conditions: 298.15 K, 101.3 kPa, Liquid; for viscosity: Capillary tube (Ostwald / Ubbelohde) method
smiles,measurement,setting,value
CC(C)=O [acetone] + ClC(Cl)=C(Cl)Cl,viscosity,x2 = 0,0.3121 ± 0.0066 mPa·s
same,mass density,x2 = 0,780.8 ± 0.7 kg/m3
CC(C)=O [acetone] + ClC=C(Cl)Cl,viscosity,x2 = 0,0.3121 ± 0.0066 mPa·s
same,mass density,x2 = 0,780.8 ± 0.7 kg/m3
c1ccccc1 [benzene] + ClC(Cl)=C(Cl)Cl,viscosity,x2 = 0,0.608 ± 0.0078 mPa·s
same,mass density,x2 = 0,869.7 ± 0.6 kg/m3
c1ccccc1 [benzene] + ClC=C(Cl)Cl,viscosity,x2 = 0,0.608 ± 0.0078 mPa·s
same,mass density,x2 = 0,869.7 ± 0.6 kg/m3
CCCCO [butan-1-ol] + ClC(Cl)=C(Cl)Cl,viscosity,x2 = 0,2.538 ± 0.023 mPa·s
same,mass density,x2 = 0,806.3 ± 0.7 kg/m3
CCCCO [butan-1-ol] + ClC=C(Cl)Cl,viscosity,x2 = 0,2.538 ± 0.023 mPa·s
same,mass density,x2 = 0,806.3 ± 0.7 kg/m3
CCC(C)O (centres undefined) [butan-2-ol] + ClC(Cl)=C(Cl)Cl,viscosity,x2 = 0,3.103 ± 0.028 mPa·s
same,mass density,x2 = 0,804.8 ± 0.7 kg/m3
CCC(C)O (centres undefined) [butan-2-ol] + ClC=C(Cl)Cl,viscosity,x2 = 0,3.103 ± 0.028 mPa·s
same,mass density,x2 = 0,804.8 ± 0.7 kg/m3
CCC(C)=O [butanone] + ClC(Cl)=C(Cl)Cl,viscosity,x2 = 0,0.4011 ± 0.0069 mPa·s
same,mass density,x2 = 0,797.4 ± 0.7 kg/m3
CCC(C)=O [butanone] + ClC=C(Cl)Cl,viscosity,x2 = 0,0.4011 ± 0.0069 mPa·s
same,mass density,x2 = 0,797.4 ± 0.7 kg/m3
CCO [ethanol] + ClC(Cl)=C(Cl)Cl,viscosity,x2 = 0,1.112 ± 0.011 mPa·s
same,mass density,x2 = 0,787.4 ± 0.7 kg/m3
CCO [ethanol] + ClC=C(Cl)Cl,viscosity,x2 = 0,1.112 ± 0.011 mPa·s
same,mass density,x2 = 0,787.4 ± 0.7 kg/m3
CCOC(C)=O [ethyl acetate] + ClC(Cl)=C(Cl)Cl,viscosity,x2 = 0,0.4274 ± 0.007 mPa·s
same,mass density,x2 = 0,894 ± 0.6 kg/m3
CCOC(C)=O [ethyl acetate] + ClC=C(Cl)Cl,viscosity,x2 = 0,0.4274 ± 0.007 mPa·s
same,mass density,x2 = 0,894 ± 0.6 kg/m3
CO [methanol] + ClC(Cl)=C(Cl)Cl,viscosity,x2 = 0,0.5482 ± 0.0075 mPa·s
same,mass density,x2 = 0,788.1 ± 0.7 kg/m3
CO [methanol] + ClC=C(Cl)Cl,viscosity,x2 = 0,0.5482 ± 0.0075 mPa·s
same,mass density,x2 = 0,788.1 ± 0.7 kg/m3
COC(C)=O [methyl ethanoate] + ClC(Cl)=C(Cl)Cl,viscosity,x2 = 0,0.3711 ± 0.0068 mPa·s
same,mass density,x2 = 0,923.9 ± 0.6 kg/m3
COC(C)=O [methyl ethanoate] + ClC=C(Cl)Cl,viscosity,x2 = 0,0.3711 ± 0.0068 mPa·s
same,mass density,x2 = 0,923.9 ± 0.6 kg/m3
CCCO [propan-1-ol] + ClC(Cl)=C(Cl)Cl,viscosity,x2 = 0,1.954 ± 0.017 mPa·s
same,mass density,x2 = 0,800 ± 0.7 kg/m3
CCCO [propan-1-ol] + ClC=C(Cl)Cl,viscosity,x2 = 0,1.954 ± 0.017 mPa·s
same,mass density,x2 = 0,800 ± 0.7 kg/m3
CC(C)O [propan-2-ol] + ClC(Cl)=C(Cl)Cl,viscosity,x2 = 0,2.044 ± 0.018 mPa·s
same,mass density,x2 = 0,784.3 ± 0.7 kg/m3
CC(C)O [propan-2-ol] + ClC=C(Cl)Cl,viscosity,x2 = 0,2.044 ± 0.018 mPa·s
same,mass density,x2 = 0,784.3 ± 0.7 kg/m3
ClC(Cl)=C(Cl)Cl [tetrachloroethene] + CC(C)=O,viscosity,x1 = 0.0742,0.3537 ± 0.0067 mPa·s
same,viscosity,x1 = 0.1529,0.398 ± 0.0069 mPa·s
same,viscosity,x1 = 0.2362,0.4442 ± 0.0071 mPa·s
same,viscosity,x1 = 0.3247,0.4942 ± 0.0073 mPa·s
same,viscosity,x1 = 0.4192,0.5459 ± 0.0075 mPa·s
same,viscosity,x1 = 0.5201,0.6021 ± 0.0078 mPa·s
same,viscosity,x1 = 0.6279,0.6581 ± 0.0081 mPa·s
same,viscosity,x1 = 0.7428,0.7167 ± 0.0084 mPa·s
same,viscosity,x1 = 0.8671,0.7802 ± 0.0087 mPa·s
same,viscosity,x1 = 1,0.8474 ± 0.0091 mPa·s
same,mass density,x1 = 0.0742,862.2 ± 0.6 kg/m3
same,mass density,x1 = 0.1529,943.8 ± 0.6 kg/m3
same,mass density,x1 = 0.2362,1025.5 ± 0.6 kg/m3
same,mass density,x1 = 0.3247,1107.7 ± 0.7 kg/m3
same,mass density,x1 = 0.4192,1189.6 ± 0.9 kg/m3
same,mass density,x1 = 0.5201,1272.3 ± 1 kg/m3
same,mass density,x1 = 0.6279,1356.2 ± 1.2 kg/m3
same,mass density,x1 = 0.7428,1440.3 ± 1.3 kg/m3
same,mass density,x1 = 0.8671,1524.6 ± 1.4 kg/m3
same,mass density,x1 = 1,1610.2 ± 1.6 kg/m3
ClC(Cl)=C(Cl)Cl [tetrachloroethene] + CC(C)O,viscosity,x1 = 0.0763,1.855 ± 0.017 mPa·s
same,viscosity,x1 = 0.1567,1.676 ± 0.015 mPa·s
same,viscosity,x1 = 0.2417,1.51 ± 0.014 mPa·s
same,viscosity,x1 = 0.3313,1.364 ± 0.013 mPa·s
same,viscosity,x1 = 0.4266,1.236 ± 0.012 mPa·s
same,viscosity,x1 = 0.5276,1.123 ± 0.011 mPa·s
same,viscosity,x1 = 0.6349,1.025 ± 0.01 mPa·s
same,viscosity,x1 = 0.7486,0.9401 ± 0.0097 mPa·s
same,viscosity,x1 = 0.8705,0.8824 ± 0.0093 mPa·s
same,viscosity,x1 = 1,0.8474 ± 0.0091 mPa·s
same,mass density,x1 = 0.0763,864.9 ± 0.6 kg/m3
same,mass density,x1 = 0.1567,946.4 ± 0.6 kg/m3
same,mass density,x1 = 0.2417,1026.7 ± 0.6 kg/m3
same,mass density,x1 = 0.3313,1107.5 ± 0.7 kg/m3
same,mass density,x1 = 0.4266,1189.3 ± 0.9 kg/m3
same,mass density,x1 = 0.5276,1271.6 ± 1 kg/m3
same,mass density,x1 = 0.6349,1355.4 ± 1.2 kg/m3
same,mass density,x1 = 0.7486,1437.6 ± 1.3 kg/m3
same,mass density,x1 = 0.8705,1523.6 ± 1.4 kg/m3
same,mass density,x1 = 1,1610.2 ± 1.6 kg/m3
ClC(Cl)=C(Cl)Cl [tetrachloroethene] + CCC(C)=O,viscosity,x1 = 0.0888,0.4563 ± 0.0071 mPa·s
same,viscosity,x1 = 0.1798,0.5095 ± 0.0073 mPa·s
same,viscosity,x1 = 0.2732,0.5626 ± 0.0076 mPa·s
same,viscosity,x1 = 0.3692,0.6147 ± 0.0078 mPa·s
same,viscosity,x1 = 0.4672,0.6642 ± 0.0081 mPa·s
same,viscosity,x1 = 0.5688,0.7069 ± 0.0083 mPa·s
same,viscosity,x1 = 0.6719,0.7447 ± 0.0085 mPa·s
same,viscosity,x1 = 0.7786,0.7802 ± 0.0087 mPa·s
same,viscosity,x1 = 0.8873,0.8161 ± 0.0089 mPa·s
same,viscosity,x1 = 1,0.8474 ± 0.0091 mPa·s
same,mass density,x1 = 0.0888,875.6 ± 0.6 kg/m3
same,mass density,x1 = 0.1798,955.1 ± 0.6 kg/m3
same,mass density,x1 = 0.2732,1034.4 ± 0.6 kg/m3
same,mass density,x1 = 0.3692,1114.1 ± 0.8 kg/m3
same,mass density,x1 = 0.4672,1193.9 ± 0.9 kg/m3
same,mass density,x1 = 0.5688,1275.5 ± 1 kg/m3
same,mass density,x1 = 0.6719,1356.5 ± 1.1 kg/m3
same,mass density,x1 = 0.7786,1441.7 ± 1.3 kg/m3
same,mass density,x1 = 0.8873,1524.2 ± 1.4 kg/m3
same,mass density,x1 = 1,1610.2 ± 1.6 kg/m3
ClC(Cl)=C(Cl)Cl [tetrachloroethene] + CCC(C)O,viscosity,x1 = 0.0903,2.66 ± 0.024 mPa·s
same,viscosity,x1 = 0.1825,2.28 ± 0.02 mPa·s
same,viscosity,x1 = 0.2769,1.944 ± 0.017 mPa·s
same,viscosity,x1 = 0.3734,1.667 ± 0.015 mPa·s
same,viscosity,x1 = 0.4718,1.453 ± 0.013 mPa·s
same,viscosity,x1 = 0.5733,1.262 ± 0.012 mPa·s
same,viscosity,x1 = 0.6759,1.119 ± 0.011 mPa·s
same,viscosity,x1 = 0.7817,1.005 ± 0.01 mPa·s
same,viscosity,x1 = 0.8891,0.9029 ± 0.0094 mPa·s
same,viscosity,x1 = 1,0.8474 ± 0.0091 mPa·s
same,mass density,x1 = 0.0903,883.6 ± 0.6 kg/m3
same,mass density,x1 = 0.1825,962.6 ± 0.6 kg/m3
same,mass density,x1 = 0.2769,1042.5 ± 0.6 kg/m3
same,mass density,x1 = 0.3734,1121.1 ± 0.8 kg/m3
same,mass density,x1 = 0.4718,1201.2 ± 0.9 kg/m3
same,mass density,x1 = 0.5733,1281.9 ± 1 kg/m3
same,mass density,x1 = 0.6759,1362.6 ± 1.2 kg/m3
same,mass density,x1 = 0.7817,1444.3 ± 1.3 kg/m3
same,mass density,x1 = 0.8891,1525.8 ± 1.5 kg/m3
same,mass density,x1 = 1,1610.2 ± 1.6 kg/m3
